Where two headings read alike, the source gives them in different places. Some results are limits rather than exact numbers.

One data set concerns CFU-GM lineage. Nature of the data set: Bone marrow toxicity, CFU-GM. The format is cell-based, human. As to conditions: human, Cytotoxicity IC50, bone marrow CFU-GM, three separate donors.
A further data set concerns HepG2 cells. As to conditions: HepG2, 14 day; for mitochondrial toxicity: at 10 μM.
Data set [1] in a line: in vitro. As to conditions: African green monkey.
Data set [2] concerns burst forming unit-erythroid (BFU-E) lineage. Nature of the data set: Bone marrow toxicity, BFU-E. The format is cell-based, human. As to conditions: positive control, at the concentration tested.
Data set [3] has as its system colony-forming unit-granulocyte, macrophage (CFU-GM) lineage. Nature of the data set: Bone marrow toxicity, CFU-GM. The format is cell-based, human. The conditions noted are these: positive control, at the concentration tested.
Data set [4] can be described thus: in vitro. As to conditions: human, microsomes.
The test system of another data set is HCV GT2a. Nature of the data set: GT2a infectious assay in Huh-7 cells. The format is cell-based. As to conditions: Hepatitis C virus, Huh-7, read-out: EC90 GT2a.
For the next data set, the system named is HCV GT1b-WT replicon. Nature of the data set: GT1b stably transfected replicon in Huh-7 cells. As to conditions: Hepatitis C virus; for EC90: Huh-7, read-out: EC90 GT1b-WT; for EC50: Huh-7, read-out: EC50 GT1b-WT. The format is cell-based.
Data set [5] has as its system HCV GT1b/4a chimeric replicon. Nature of the data set: Chimeric replicon GT1b/4a in Huh-7 cells. The format is cell-based. The conditions noted are these: Hepatitis C virus, Huh-7, read-out: EC90 GT1b/4a.
The test system of data set [6] is HCV GT1b/5a chimeric replicon. Nature of the data set: Chimeric replicon GT1b/5a in Huh-7 cells. The format is cell-based. As to conditions: Hepatitis C virus, Huh-7, read-out: EC90 GT1b/5a.
A short description of data set [7]: HepG2 cytotoxicity, 3 day, glucose/galactose media. The format is cell-based. The conditions noted are these: human.
A short description of data set [8]: HepG2 cytotoxicity, 14 day, glucose/galactose media. The format is cell-based. The conditions noted are these: human.
In data set [9] the target is T1, human ether-à-go-go-related gene (hERG) potassium channels (Homo sapiens, UniProt Q12809). Nature of the data set: hERG whole-cell patch clamp in CHO cells. The format is cell-based.
T1 sequence (Q12809 whole entry): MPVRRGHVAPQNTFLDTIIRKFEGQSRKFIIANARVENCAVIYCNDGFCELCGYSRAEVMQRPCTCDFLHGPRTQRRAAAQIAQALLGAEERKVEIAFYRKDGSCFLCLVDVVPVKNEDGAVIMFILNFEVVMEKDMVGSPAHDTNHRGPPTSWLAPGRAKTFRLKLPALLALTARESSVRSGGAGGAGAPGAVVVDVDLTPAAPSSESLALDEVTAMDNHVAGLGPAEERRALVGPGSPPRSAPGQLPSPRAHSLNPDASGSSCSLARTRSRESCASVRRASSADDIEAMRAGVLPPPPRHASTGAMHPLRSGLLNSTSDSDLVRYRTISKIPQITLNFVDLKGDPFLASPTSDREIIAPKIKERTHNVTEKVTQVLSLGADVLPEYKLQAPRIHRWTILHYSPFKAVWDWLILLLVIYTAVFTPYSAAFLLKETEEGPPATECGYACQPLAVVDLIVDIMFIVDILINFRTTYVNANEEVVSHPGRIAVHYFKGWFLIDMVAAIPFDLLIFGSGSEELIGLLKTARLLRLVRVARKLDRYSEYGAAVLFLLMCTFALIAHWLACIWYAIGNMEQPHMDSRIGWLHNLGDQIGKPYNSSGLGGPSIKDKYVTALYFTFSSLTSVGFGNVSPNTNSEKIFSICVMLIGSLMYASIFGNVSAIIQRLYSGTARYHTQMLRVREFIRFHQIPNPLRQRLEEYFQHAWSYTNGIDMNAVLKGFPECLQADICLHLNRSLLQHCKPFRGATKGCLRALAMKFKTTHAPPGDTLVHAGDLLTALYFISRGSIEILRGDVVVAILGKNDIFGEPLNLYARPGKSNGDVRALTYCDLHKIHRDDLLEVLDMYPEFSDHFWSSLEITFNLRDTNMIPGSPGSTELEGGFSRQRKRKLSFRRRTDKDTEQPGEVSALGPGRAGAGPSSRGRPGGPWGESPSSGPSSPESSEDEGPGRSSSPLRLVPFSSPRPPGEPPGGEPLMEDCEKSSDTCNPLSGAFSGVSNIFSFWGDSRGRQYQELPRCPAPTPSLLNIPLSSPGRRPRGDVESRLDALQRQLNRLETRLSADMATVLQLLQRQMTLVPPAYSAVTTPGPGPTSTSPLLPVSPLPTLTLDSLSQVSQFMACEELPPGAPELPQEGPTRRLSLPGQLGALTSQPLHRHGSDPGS
Data set [10] is described as follows: Stability in simulated gastric fluid. The format is physicochemical. The conditions noted are these: 37 °C.
The conditions of data set [11]: for Clint(liver): scaled from Clint(mic).
For data set [12], the system named is Salmonella typhimurium (TA98, TA100, TA1535, and TA1537) and Escherichia coli WP2 uvrA (pKM101). Nature of the data set: Mini Ames reverse mutation study. The conditions noted are these: with and without S9 mix.
A short description of data set [13]: Stability in simulated intestinal fluid. As to conditions: 37 °C.
Data set [14] can be described thus: Stability in human intestinal microsomes.
The nature of data set [15]: Cardiac toxicity in stem cell-induced ventricular cardiomyocytes. The conditions noted are these: human.
In the next data set the test system is BFU-E lineage. Nature of the data set: Bone marrow toxicity, BFU-E. The format is cell-based, human. The conditions noted are these: human, Cytotoxicity IC50, bone marrow BFU-E, three separate donors.
For data set [16], the system named is HCV GT1b/3a chimeric replicon. Nature of the data set: Chimeric replicon GT1b/3a in Huh-7 cells. The format is cell-based. The conditions noted are these: Hepatitis C virus, Huh-7, read-out: EC90 GT1b/3a.
Data set [17] relates to Salmonella typhimurium (TA98, TA100, TA1535, and TA1537) and Escherichia coli WP2 uvrA (pKM101). As to conditions: cited from earlier work.
For data set [18], the target named is T1, human ether-à-go-go-related gene (hERG) potassium channels. As to conditions: cited from earlier work.
Data set [19] in a line: In vitro nephrotoxicity in HK-2 cells, 3 day assay. The conditions noted are these: human.
For the next data set, the target named is DNA polymerase β (Homo sapiens, UniProt P06746). Nature of the data set: Human DNA polymerase β inhibition. The format is biochemical.
For another data set, the target named is T2, DNA polymerase γ (Homo sapiens, UniProt P54098).
T2 sequence (P54098 1-1239): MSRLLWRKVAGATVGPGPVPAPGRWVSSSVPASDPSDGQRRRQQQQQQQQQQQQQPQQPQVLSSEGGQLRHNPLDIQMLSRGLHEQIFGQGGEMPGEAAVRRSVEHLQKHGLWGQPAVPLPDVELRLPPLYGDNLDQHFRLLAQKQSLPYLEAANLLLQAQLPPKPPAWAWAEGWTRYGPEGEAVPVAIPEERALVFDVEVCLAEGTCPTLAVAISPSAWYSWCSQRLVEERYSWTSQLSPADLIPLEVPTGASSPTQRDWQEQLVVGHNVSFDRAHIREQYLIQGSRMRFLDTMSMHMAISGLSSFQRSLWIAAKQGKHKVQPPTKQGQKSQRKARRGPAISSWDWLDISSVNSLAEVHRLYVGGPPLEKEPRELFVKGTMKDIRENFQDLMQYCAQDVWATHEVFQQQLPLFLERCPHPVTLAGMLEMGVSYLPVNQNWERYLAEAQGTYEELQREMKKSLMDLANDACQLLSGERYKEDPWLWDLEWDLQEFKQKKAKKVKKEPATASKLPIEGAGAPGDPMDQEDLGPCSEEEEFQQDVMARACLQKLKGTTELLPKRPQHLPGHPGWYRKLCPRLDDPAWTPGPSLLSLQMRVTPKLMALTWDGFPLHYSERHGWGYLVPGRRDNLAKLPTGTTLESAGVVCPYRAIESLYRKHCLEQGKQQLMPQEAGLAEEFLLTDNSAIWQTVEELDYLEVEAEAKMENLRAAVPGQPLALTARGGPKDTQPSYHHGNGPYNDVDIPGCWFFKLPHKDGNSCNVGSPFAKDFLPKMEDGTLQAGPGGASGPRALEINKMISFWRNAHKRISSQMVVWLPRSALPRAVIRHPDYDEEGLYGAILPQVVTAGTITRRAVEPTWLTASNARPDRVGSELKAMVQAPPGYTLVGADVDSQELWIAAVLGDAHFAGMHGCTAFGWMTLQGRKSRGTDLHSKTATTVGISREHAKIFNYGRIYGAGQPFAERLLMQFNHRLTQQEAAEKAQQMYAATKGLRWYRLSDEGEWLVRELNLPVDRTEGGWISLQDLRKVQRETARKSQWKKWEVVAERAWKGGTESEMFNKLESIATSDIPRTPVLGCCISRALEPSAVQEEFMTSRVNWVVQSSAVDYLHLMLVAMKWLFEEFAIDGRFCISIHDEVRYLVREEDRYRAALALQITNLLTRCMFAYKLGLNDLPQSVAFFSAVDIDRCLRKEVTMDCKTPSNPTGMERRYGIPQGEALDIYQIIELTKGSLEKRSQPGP
Nature of the data set: Human DNA polymerase γ inhibition. The format is biochemical.

`O=c1ccn([C@@H]2O[C@H](CO)[C@@H](O)[C@]2(F)Br)c(=O)[nH]1` [Compound 12, 1-((2R, 3S, 4R, 5R)-3-Bromo-3-fluoro-4-hydroxy-5-(hydroxymethyl)tetrahydrofuran-2-yl)pyrimidine-2,4(1H,3H)-dione] registered an IC50 in the data set with CFU-GM lineage of over 100000 nM. Besides, in the data set with HepG2 cells (50 μM), the “MtDNA content % of control (range)” value is 72 (63–83) % of control and the “lactic acid production (% of control)” value is given as 69 ± 14 % of control. The “measurable mitochondrial toxicity (none up to)” value in the data set with HepG2 cells was over 50 µM. The same compound showed a CC50 in the data set “in vitro [1]” of over 100000 nM.
Regarding `Cc1cn([C@H]2C[C@H](N=[N+]=[N-])[C@@H](CO)O2)c(=O)[nH]c1=O` [AZT, reference compound], the “toxicity in erythroid progenitors” value in data set [2] is “high toxicity”. The “toxicity in myelomonocytic progenitors” value in [3] was “high toxicity”.
Regarding `O=C(O)Cc1ccccc1Nc1c(Cl)cccc1Cl` [diclofenac, reference compound], in the data set “in vitro [4]”, the intrinsic clearance (microsomal CLint) was 129 µL/min/mg.
Consider `CC(C)OC(=O)[C@H](C)N[P@](=O)(OC[C@H]1O[C@@H](n2ccc(=O)[nH]c2=O)[C@@](F)(Br)[C@@H]1O)Oc1ccccc1` [Compound 28, Isopropyl ((S)-(((2R,3R,4S,5R)-4-Bromo-5-(2,4-dioxo-3,4-dihydro-pyrimidin-1(2H)-yl)-4-fluoro-3-hydroxytetrahydrofuran-2-yl)-methoxy)(phenoxy)phosphoryl)-L-alaninate], for which the EC90 in the data set on HCV GT2a was found to be 77 nM; with HCV GT1b-WT replicon, 74 ± 2 nM; in [5], 130 ± 3 nM; in [6] it was 83 ± 20 nM. This compound came in with an IC50 at 3 days in [7] of over 100000 nM. This compound also displayed an IC50 at 14 days in data set [8] of over 100000 nM. Moreover, the IC50 in data set [9] is over 30000 nM; in data set [15], over 100000 nM. Besides, in data set [10], the “simulated gastric fluid (24 h), loss” value is about 2% loss. Also, the “MtDNA content % of control (range)” value with HepG2 cells (12.5 μM) is 86 (79–93) % of control; in the data set with HepG2 cells (25 μM) it was 110 (110–110) % of control; in the data set on HepG2 cells (50 μM), 150 (150–150) % of control. Besides, in the data set with HepG2 cells, the mitochondrial toxicity entry is reported as “no mitochondrial toxicity”. Also, the “remaining after 60 min” value in [11] (human liver microsomes) came to 3%. Moreover, the “Clint(liver)” value in data set [11] was determined as 63.2 mL/min/kg. In the data set “in vitro [1]”, the CC50 is over 100000 nM. The half-life in the data set “in vitro [4]” was 19.7 min; in data set [14], over 145 min. The same compound had a microsomal CLint in “in vitro [4]” of 70.2 µL/min/mg. Further, the “mutagenicity (mini Ames)” value in data set [12] is “negative for mutagenicity”. The “stability in simulated intestinal fluid (24 h)” value in [13] is “stable”.
Regarding `CC(C)OC(=O)[C@H](C)NP(=O)(OC[C@H]1O[C@@H](n2ccc(=O)[nH]c2=O)[C@](F)(Br)[C@H]1O)Oc1ccccc1` (mixture of isomers) [Compound 14], the IC50 at 3 days in [7] is over 100000 nM. The IC50 in the data set with BFU-E lineage and in the data set with CFU-GM lineage was over 100000 nM throughout. Besides, the “MtDNA content % of control (range)” value in the data set on HepG2 cells (50 μM) is 100 (99–104) % of control. Further, in the data set with HepG2 cells, the “measurable mitochondrial toxicity (none up to)” value is over 50 µM.
Consider `CC(C)OC(=O)[C@H](C)N[P@](=O)(OC[C@H]1O[C@@H](n2ccc(=O)[nH]c2=O)[C@](C)(F)[C@@H]1O)Oc1ccccc1` [SOF, sofosbuvir, reference compound], for which, in the data set with HCV GT1b-WT replicon, the EC50 amounted to 34 nM. Besides, the EC90 turned out to be 150 ± 30 nM in the data set with HCV GT1b-WT replicon and 370 ± 10 nM in data set [16]. Moreover, the “MtDNA content % of control (range)” value in the data set with HepG2 cells (12.5 μM) is recorded as 96 (90–100) % of control; with HepG2 cells (50 μM), 130 (120–150) % of control. Besides, the mutagenicity entry in data set [17] is “negative for mutagenicity”. Moreover, the hERG channel inhibition entry in data set [18] is “free from hERG channel inhibition”. In data set [19], this compound had an IC50 at 3 days of over 300000 nM. In [15], this compound yielded an IC50 of over 100000 nM.
With `Nc1ccn([C@H]2CC[C@@H](CO)O2)c(=O)n1` [ddC, β-D-2′,3′-dideoxycytidine, reference compound], the “MtDNA content % of control (range)” value with HepG2 cells (10 μM) is 7.3 % of control. Besides, the mitochondrial toxicity entry with HepG2 cells is reported as “highly toxic”.
Consider `CC(C)OC(=O)[C@H](C)N[P@@](=O)(OC[C@H]1O[C@@H](n2ccc(=O)[nH]c2=O)[C@@](F)(Br)[C@@H]1O)Oc1ccccc1` [Compound 27, Isopropyl ((R)-(((2R,3R,4S,5R)-4-Bromo-5-(2,4-dioxo-3,4-dihydro-pyrimidin-1(2H)-yl)-4-fluoro-3-hydroxytetrahydrofuran-2-yl)-methoxy)(phenoxy)phosphoryl)-L-alaninate], for which the EC90 in the data set with HCV GT2a was found to be 830 ± 10 nM; in data set [16], 1600 ± 20 nM; in [5], 870 ± 230 nM; in data set [6], 800 ± 1500 nM. Further, the EC50 in the data set on HCV GT1b-WT replicon is 92 nM. Moreover, the IC50 at 3 days in data set [7] is over 100000 nM. Further, the IC50 at 14 days in data set [8] is over 100000 nM. In addition, the IC50 was over 100000 nM with BFU-E lineage, over 100000 nM in the data set on CFU-GM lineage, over 30000 nM in data set [9] and over 100000 nM in data set [15]. Also, the “simulated gastric fluid (24 h), loss” value in [10] is reported as about 2% loss. In addition, in the data set on HepG2 cells (50 μM), the “MtDNA content % of control (range)” value is on record as 65 (65–65) % of control. Moreover, the “lactic acid production (% of control)” value with HepG2 cells (50 μM) is reported as 100 ± 6.2 % of control. For the same compound, in data set [11], the “Clint(liver)” value came to 67.8 mL/min/kg. Moreover, the CC50 in “in vitro [1]” is over 100000 nM. In addition, the half-life stood at 18.4 min in the data set “in vitro [4]” and 132 min in data set [14]. In “in vitro [4]”, this compound gave a microsomal CLint of 75.3 µL/min/mg. For the same compound, the “mutagenicity (mini Ames)” value in data set [12] was “negative for mutagenicity”. Further, the “stability in simulated intestinal fluid (24 h)” value in data set [13] is listed as “stable”.
For `Cc1cn([C@H]2CC[C@@H](COP(=O)(O)OP(=O)(O)OP(=O)(O)O)O2)c(=O)[nH]c1=O` [ddTTP], the IC50 is 8400 ± 110 nM against DNA polymerase β and 100 ± 70 nM at DNA polymerase γ.

Values taken from article PMC7722249 (Journal of medicinal chemistry, 2019).
